{"source": "patent US8580794B2", "about": "(AbbVie Inc., priority 2009, dated 2013)", "target": "GST-Bc1-2 (Homo sapiens, UniProt P10415)", "sequence (P10415 whole entry)": "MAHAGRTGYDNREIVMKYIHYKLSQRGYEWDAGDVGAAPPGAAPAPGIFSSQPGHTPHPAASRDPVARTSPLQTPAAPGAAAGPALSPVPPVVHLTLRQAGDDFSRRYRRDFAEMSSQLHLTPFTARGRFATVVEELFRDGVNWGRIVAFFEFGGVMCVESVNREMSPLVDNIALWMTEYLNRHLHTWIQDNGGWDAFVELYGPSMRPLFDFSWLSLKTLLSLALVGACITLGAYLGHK", "assay": "Time Resolved-Fluorescence Resonance Energy Transfer (TR-FRET) Bcl-2 binding assay with F-Bak peptide probe", "conditions": "GST-Bcl-2 1 nM, F-Bak probe 100 nM, Tb-anti-GST 1 nM; '<' = below limit of detection; read-out: TR-FRET Bcl-2 Binding Ki"}
{"molecule": "CC1(C)C=CC(c2ccc(Cl)cc2)=C(CN2CCN(c3ccc(C(=O)NS(=O)(=O)c4ccc(NCC5CCOCC5)c([N+](=O)[O-])c4)c(Oc4cnc5[nH]ccc5c4)c3)CC2)C1", "note": "[Example 206, 4-(4-{[2-(4-chlorophenyl)-5,5-dimethylcyclohexa-1,3-dien-1-yl]methyl}piperazin-1-yl)-N-({3-nitro-4-[(tetrahydro-2H-pyran-4-ylmethyl)amino]phenyl}sulfonyl)-2-(1H-pyrrolo[2,3-b]pyridin-5-yloxy)benzamide]", "values": [{"measurement": "Ki", "result": 0.036, "unit": "nM"}]}
{"molecule": "CC1(C)CCC(CN2CCN(c3ccc(C(=O)NS(=O)(=O)c4ccc(N[C@@H]5CCN(C(CF)CF)C5)c([N+](=O)[O-])c4)c(Oc4cnc5[nH]ccc5c4)c3)CC2)=C(c2ccc(Cl)cc2)C1", "note": "[Example 207, 4-(4-{[2-(4-chlorophenyl)-4,4-dimethylcyclohex-1-en-1-yl]methyl}piperazin-1-yl)-N-{[4-({(3R)-1-[2-fluoro-1-(fluoromethyl)ethyl]pyrrolidin-3-yl}amino)-3-nitrophenyl]sulfonyl}-2-(1H-pyrrolo[2,3-b]pyridin-5-yloxy)benzamide]", "values": [{"measurement": "Ki", "result": 0.03, "unit": "nM"}]}
{"molecule": "CC1(C)CCC(CN2CCN(c3ccc(C(=O)NS(=O)(=O)c4cnc(OCC5(F)CCOCC5)c(C(F)(F)F)c4)c(Oc4cnc5[nH]ccc5c4)c3)CC2)=C(c2ccc(Cl)cc2)C1", "note": "[Example 208, 4-(4-{[2-(4-chlorophenyl)-4,4-dimethylcyclohex-1-en-1-yl]methyl}piperazin-1-yl)-N-{[6-[(4-fluorotetrahydro-2H-pyran-4-yl)methoxy]-5-(trifluoromethyl)pyridin-3-yl]sulfonyl}-2-(1H-pyrrolo[2,3-b]pyridin-5-yloxy)benzamide]", "values": [{"measurement": "Ki", "result": 0.104, "unit": "nM"}]}
{"molecule": "CC1(C)CCC(CN2CCN(c3ccc(C(=O)NS(=O)(=O)c4ccc(NC[C@@H]5CCN(C6COC6)C5)c([N+](=O)[O-])c4)c(Oc4cnc5[nH]ccc5c4)c3)CC2)=C(c2ccc(Cl)cc2)C1", "note": "[Example 209, 4-(4-{[2-(4-chlorophenyl)-4,4-dimethylcyclohex-1-en-1-yl]methyl}piperazin-1-yl)-N-{[3-nitro-4-({[(3S)-1-oxetan-3-ylpyrrolidin-3-yl]methyl}amino)phenyl]sulfonyl}-2-(1H-pyrrolo[2,3-b]pyridin-5-yloxy)benzamide]", "values": [{"measurement": "Ki", "result": "< 0.01", "unit": "nM"}]}
{"molecule": "CO[C@H]1CC[C@H](COc2ncc(S(=O)(=O)NC(=O)c3ccc(N4CCN(CC5=C(c6ccc(Cl)cc6)CC(C)(C)CC5)CC4)cc3Oc3cnc4[nH]ccc4c3)cc2Cl)CC1", "note": "[Example 210, Trans-N-({5-chloro-6-[(4-methoxycyclohexyl)methoxy]pyridin-3-yl}sulfonyl)-4-(4-{[2-(4-chlorophenyl)-4,4-dimethylcyclohex-1-en-1-yl]methyl}piperazin-1-yl)-2-(1H-pyrrolo[2,3-b]pyridin-5-yloxy)benzamide]", "values": [{"measurement": "Ki", "result": 0.011, "unit": "nM"}]}
{"molecule": "CO[C@H]1CC[C@@H](COc2ncc(S(=O)(=O)NC(=O)c3ccc(N4CCN(CC5=C(c6ccc(Cl)cc6)CC(C)(C)CC5)CC4)cc3Oc3cnc4[nH]ccc4c3)cc2Cl)CC1", "note": "[Example 211, Cis-N-({5-chloro-6-[(4-methoxycyclohexyl)methoxy]pyridin-3-yl}sulfonyl)-4-(4-{[2-(4-chlorophenyl)-4,4-dimethylcyclohex-1-en-1-yl]methyl}piperazin-1-yl)-2-(1H-pyrrolo[2,3-b]pyridin-5-yloxy)benzamide]", "values": [{"measurement": "Ki", "result": 0.058, "unit": "nM"}]}
{"molecule": "COCCOCCN1CCOC(CNc2ccc(S(=O)(=O)NC(=O)c3ccc(N4CCN(CC5=C(c6ccc(Cl)cc6)CC(C)(C)CC5)CC4)cc3Oc3cnc4[nH]ccc4c3)cc2[N+](=O)[O-])C1", "note": "(stereo not shown) [Example 213, 4-(4-{[2-(4-chlorophenyl)-4,4-dimethylcyclohex-1-en-1-yl]methyl}piperazin-1-yl)-N-({4-[({4-[2-(2-methoxyethoxy)ethyl]morpholin-2-yl}methyl)amino]-3-nitrophenyl}sulfonyl)-2-(1H-pyrrolo[2,3-b]pyridin-5-yloxy)benzamide]", "values": [{"measurement": "Ki", "result": "< 0.01", "unit": "nM"}]}
